Values of other authors in patent publication US20060270013A1 (priority 2003, published 2006).

Target: NADPH-dependent benzil reductase (Bacillus cereus, UniProt Q8RJB2)
Conditions: substrate of benzil reductase; Maruyama et al. 2002

Chain of NADPH-dependent benzil reductase (Q8RJB2 whole entry): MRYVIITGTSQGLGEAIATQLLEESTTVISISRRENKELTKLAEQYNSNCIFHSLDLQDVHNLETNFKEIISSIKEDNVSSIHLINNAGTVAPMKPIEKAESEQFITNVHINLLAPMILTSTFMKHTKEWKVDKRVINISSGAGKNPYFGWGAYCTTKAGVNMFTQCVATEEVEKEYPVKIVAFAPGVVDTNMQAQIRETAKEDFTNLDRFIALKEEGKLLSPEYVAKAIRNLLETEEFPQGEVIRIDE

Structure (SMILES) | Km [µM] | kcat [s⁻¹]
CC(=O)C(=O)c1ccccc1 [1-phenyl-1,2-propanedione] | 42 | 2.75
O=Cc1ccc([N+](=O)[O-])cc1 [p-nitrobenzaldehyde] | 261 | 0.02
